Reference: patent EP2511272B1, “Synthetic analogues of abscisic acid with anti-inflammatory and insulin release stimulation effects on human cells” (Universita' degli Studi di Genova, priority 2011, dated 2012)
Read-outs that look alike come from different tables or passages of the source.

What was measured:
human granulocytes = assay: Inhibition of ABA-induced phagocytosis of fluorescent beads; assay type: cell-based
Protocol: Human granulocytes, after ON incubation in complete DMEM/F12, were resuspended at 1x10^6 cells/100 µl in HBSS.
For the experiment, fluorescent polystyrene (carboxylate-modified polystyrene) beads were used, of 1 µm of diameter (Sigma-Aldrich) A volume of 100 µl of cellular suspension was subdivided into eppendorf, in which a 10 minutes long preincubation was carried out with 20 µM ABA, either alone, or together with increasing concentrations of compound prepared according to example 1.
After the end of the preincubation, the beads were added for 5, 10 and 30 minutes. For each experimental point, 2.5 x 10^5 beads were used.
At the end of the incubations, the cells were collected by centrifugation (200xg for 10 seconds), were washed with 1 ml of HBSS at 0 °C and were centrifuged once again at 200xg for 10 seconds. The supernatant was discarded and the cells were resuspended in 350 µl of HBSS and added to 96-well plates of white colour (100 µl per well).
The increase in fluorescence was measured with Fluostar OPTIMA fluorometer (λexc: 485; λemis: 520).
The experiment was carried out three times in triplicate.
Human grnulocytes were preincubated for 10 minutes at 20 °C with 20 µM ABA, either alone or in the presence of compound prepared according to example 1, at various concentrations. In order to evaluate the phagocytic capability of granulocytes, fluorescent beads were added and, after 15 and 30 minutes, the fluorescence absorbed by the cells was determined as described in Materials and Methods The results were expressed as the average of the results obtained from three independent experiments, from which the background value, obtained from the control, had been subtracted (TABLE 5). TABLE 5. Inhibition of phagocitosis, in human granulocytes stimulated with ABA, by compound prepared according to example 1.

human monocytes [1] = assay: Inhibition of ABA-induced PGE2 production in monocytes (EIA); assay type: cell-based; settings: 6 h
Protocol: Monocytes, 25 x 10^6/Petri in complete RPMI, were incubated for 6 h with 100 nM ABA either alone, or in the presence of compound prepared according to example 1, at a concentration of 1 µM. At the end of the incubation, the substrate was centrifuged at 17,000xg for 5 minutes and the concentration of PGE2 was quantitated by using the kit: PGE2 monoclonal EIA kit (Cayman Chemical Co.), following the instructions suppled by the manufacturer.
(§1) The cells were lysed in 200 µl of deionized water in order to quantitate total proteins by the Bradford method (Bradford, M. M., 1976), after thre preliminary generation of a reference standard curve, obtained with different concentrations of bovine serum albumin. The spectrophotometric measurements were carried out at wavelength of 595 nm.
(§2) The experiment was carried out three times in sextuplicate.
The results were expressed as the average of the results from three independent experiments, as referred to control value. […] TABLE 7. Inhibition of PGE2 production, in human monocytes stimulated with ABA, by compound prepared according to example 1

human monocytes [2] = assay: Inhibition of ABA-induced MCP-1 production in monocytes (ELISA); assay type: cell-based; settings: 6 h
Protocol: Monocytes, 25 x 10^6/Petri in complete RPMI, were incubated for 6 h with 100 nM ABA either alone, or in the presence of compound prepared according to example 1, at a concentration of 1 µM. At the end of the incubation, the substrate was centrifuged at 17,000xg for 5 minutes and the release of MCP-1 (monocyte chemotactic protein-1) was quantitated by means of kit MC=-1 Elisa kit (GE Healthcare), in accordance with the instructions supplied by the manufacturer.
as §1, with “method,” for “method (Bradford, M. M., 1976),”
as §2
The results were expressed as the average of the results from three independent experiments, as referred to control value. […] TABLE 8. Inhibition of MCP-1 production in human monocytes by compound prepared according to example 1

INS-1 cells = assay: Insulin release (secretion index) by INS-1 cells, scr or LANCL-2 silenced; assay type: cell-based, rat; settings: 30 minutes
Protocol: Insulinoma cells of INS-1 rat were transfected with LANCL-2 silencing RNAs LANCL-2 (siRNAL2) or with nonsense RNA (scr) and were incubated in 5 mM glucose (LG) oppure 25 mM glucose (HG), in the absence or in the presence of 100 nM ABA or of compound according to example 1 (100 nM). Insulin release is expressed as the secretion index (SI) relative to insulin release in LG. As regards the experimental procedure, with the exception of use of compound according to example 1, reference can be made to the following paper, in which the properties which are the subject-matter of the present example were investigated for only ABA. Sturla L, Fresia C, Guida L, Grozio A, Vigliarolo T, Mannino E, Millo E, Bagnasco L, Bruzzone S, De Flora A, Zocchi E. Binding of abscisic acid to human LANCL2. Biochem Biophys Res Commun. 2011 Nov 18;415(2):390-5. TABLE 12. Effect of ABA and of compound from example 1 on insulin release (SI) by […] at 30 minutes.

[3] = LANCL2 siRNA, HG (25 mM glucose), substance 100 nM
[4] = LANCL2 siRNA, LG (5 mM glucose), substance 100 nM
[5] = SCR, HG (25 mM glucose), substance 100 nM
[6] = SCR, LG (5 mM glucose), substance 100 nM
[7] = Homo sapiens, Monocyte, ABA 100 nM + compound 1 µM

**Q.** For `CC1=CC(=O)CC(C)(C)C1(O)/C=C/C(C)=C\C(=O)O` (racemic) [ABA, (2Z,4E)-5-(1-hydroxy-2,6,6-trimethyl-4-oxo-2-cyclohexen-1-yl)-3-methyl-2,4-pentadienoic acid, reference compound], which “Increase in fluorescence ±SD (@ 15 min)” value (human granulocytes; ABA 20 µM alone, 15 min) is on record?
**A.** The value was 909±47.

**Q.** What about the “Increase in fluorescence ±SD (@ 30 min)” value (human granulocytes; ABA 20 µM alone, 30 min) of the same molecule?
**A.** The value was 2476±50.

**Q.** What about the “Relative amount of PGE2 as referred to control ± SD” value (human monocytes [1]; ABA 100 nM alone) of the same molecule?
**A.** The value was 2,2±0,2.

**Q.** What about the “MCP-1 relatively to control ± SD” value (human monocytes [2]; ABA 100 nM alone) of the same molecule?
**A.** The value was 2±0.2.

**Q.** What about the “insulin release, secretion index (SI) relative to LG” value (INS-1 cells; [3]) of the same molecule?
**A.** The value was 1.7.

**Q.** And the “insulin release, secretion index (SI) relative to LG” value (INS-1 cells; [4])?
**A.** Its value is 1.

**Q.** What about the “insulin release, secretion index (SI) relative to LG” value (INS-1 cells; [5]) of the same molecule?
**A.** Its value is 6.4.

**Q.** What about the “insulin release, secretion index (SI) relative to LG” value (INS-1 cells; [6]) of the same molecule?
**A.** The value was 1.7.

**Q.** For `CC(=C/C(=O)O)/C=C/C1(O)C(C)(C)CC(=O)C2OC21C` (stereo not drawn) [Example 1, 2'α,3'α-dihydro-2'α,3'α-epoxyabscisic acid], which “Increase in fluorescence ±SD (@ 15 min)” value (human granulocytes; ABA 20 µM + compound 0.5 nM, 15 min) is on record?
**A.** The value was 210±2.

**Q.** And the “Increase in fluorescence ±SD (@ 30 min)” value (human granulocytes; ABA 20 µM + compound 0.5 nM, 30 min)?
**A.** Its value is 1423±3.

**Q.** What about the “Increase in fluorescence ±SD (@ 15 min)” value (human granulocytes; ABA 20 µM + compound 10 nM, 15 min) of the same molecule?
**A.** Its value is 148±2.

**Q.** And the “Increase in fluorescence ±SD (@ 30 min)” value (human granulocytes; ABA 20 µM + compound 10 nM, 30 min)?
**A.** Its value is 515±10.

**Q.** What about the “Increase in fluorescence ±SD (@ 15 min)” value (human granulocytes; ABA 20 µM + compound 1 µM, 15 min) of the same molecule?
**A.** Its value is 17.

**Q.** What about the “Increase in fluorescence ±SD (@ 30 min)” value (human granulocytes; ABA 20 µM + compound 1 µM, 30 min) of the same molecule?
**A.** The value was 0.

**Q.** And the inhibition at 0.0005 µM (human granulocytes; Homo sapiens, 0.25 h, ABA 20 µM + compound 0.5 nM, 15 min, read-out: Inhibition % (@ 15 min))?
**A.** Its inhibition at 0.0005 µM is 77%.

**Q.** And the inhibition at 0.01 µM (human granulocytes; Homo sapiens, 0.25 h, ABA 20 µM + compound 10 nM, 15 min, read-out: Inhibition % (@ 15 min))?
**A.** Its inhibition at 0.01 µM is 84%.

**Q.** What about the inhibition at 1 µM (human granulocytes; Homo sapiens, 0.25 h, ABA 20 µM + compound 1 µM, 15 min, read-out: Inhibition % (@ 15 min)) of the same molecule?
**A.** The inhibition at 1 µM was 98%.

**Q.** And the inhibition at 0.0005 µM (human granulocytes; Homo sapiens, 0.5 h, ABA 20 µM + compound 0.5 nM, 30 min, read-out: Inhibition % (@ 30 min))?
**A.** The inhibition at 0.0005 µM was 43%.

**Q.** What about the inhibition at 0.01 µM (human granulocytes; Homo sapiens, 0.5 h, ABA 20 µM + compound 10 nM, 30 min, read-out: Inhibition % (@ 30 min)) of the same molecule?
**A.** Its inhibition at 0.01 µM is 80%.

**Q.** And the inhibition at 1 µM (human granulocytes; Homo sapiens, 0.5 h, ABA 20 µM + compound 1 µM, 30 min, read-out: Inhibition % (@ 30 min))?
**A.** The inhibition at 1 µM was 100%.

**Q.** What about the IC50 (human granulocytes; Homo sapiens, phagocytosis induced by 20 µM ABA) of the same molecule?
**A.** The IC50 was roughly 0.5 nM.

**Q.** What about the “Relative amount of PGE2 as referred to control ± SD” value (human monocytes [1]; ABA 100 nM + compound 1 µM) of the same molecule?
**A.** The value was 1,0±0,1.

**Q.** What about the inhibition at 1 µM (human monocytes [1]; [7]) of the same molecule?
**A.** Its inhibition at 1 µM is 100%.

**Q.** And the “MCP-1 relatively to control ± SD” value (human monocytes [2]; ABA 100 nM + compound 1 µM)?
**A.** The value was 0.8±0.2.

**Q.** And the inhibition at 1 µM (human monocytes [2]; [7])?
**A.** Its inhibition at 1 µM is 100%.

**Q.** And the “insulin release, secretion index (SI) relative to LG” value (INS-1 cells; [3])?
**A.** Its value is 3.

**Q.** What about the “insulin release, secretion index (SI) relative to LG” value (INS-1 cells; LANCL2 siRNA, HG, ABA 100 nM + compound 100 nM together) of the same molecule?
**A.** The value was 8.

**Q.** What about the “insulin release, secretion index (SI) relative to LG” value (INS-1 cells; [4]) of the same molecule?
**A.** Its value is 2.

**Q.** What about the “insulin release, secretion index (SI) relative to LG” value (INS-1 cells; LANCL2 siRNA, LG, ABA 100 nM + compound 100 nM together) of the same molecule?
**A.** The value was 5.

**Q.** What about the “insulin release, secretion index (SI) relative to LG” value (INS-1 cells; [5]) of the same molecule?
**A.** Its value is 6.

**Q.** What about the “insulin release, secretion index (SI) relative to LG” value (INS-1 cells; SCR, HG, ABA 100 nM + compound 100 nM together) of the same molecule?
**A.** The value was 12.

**Q.** And the “insulin release, secretion index (SI) relative to LG” value (INS-1 cells; [6])?
**A.** Its value is 2.5.

**Q.** And the “insulin release, secretion index (SI) relative to LG” value (INS-1 cells; SCR, LG, ABA 100 nM + compound 100 nM together)?
**A.** Its value is 8.5.
